The target in data set [1] is T1, TG2 (Homo sapiens, UniProt P21980).
T1 sequence (P21980 1-687): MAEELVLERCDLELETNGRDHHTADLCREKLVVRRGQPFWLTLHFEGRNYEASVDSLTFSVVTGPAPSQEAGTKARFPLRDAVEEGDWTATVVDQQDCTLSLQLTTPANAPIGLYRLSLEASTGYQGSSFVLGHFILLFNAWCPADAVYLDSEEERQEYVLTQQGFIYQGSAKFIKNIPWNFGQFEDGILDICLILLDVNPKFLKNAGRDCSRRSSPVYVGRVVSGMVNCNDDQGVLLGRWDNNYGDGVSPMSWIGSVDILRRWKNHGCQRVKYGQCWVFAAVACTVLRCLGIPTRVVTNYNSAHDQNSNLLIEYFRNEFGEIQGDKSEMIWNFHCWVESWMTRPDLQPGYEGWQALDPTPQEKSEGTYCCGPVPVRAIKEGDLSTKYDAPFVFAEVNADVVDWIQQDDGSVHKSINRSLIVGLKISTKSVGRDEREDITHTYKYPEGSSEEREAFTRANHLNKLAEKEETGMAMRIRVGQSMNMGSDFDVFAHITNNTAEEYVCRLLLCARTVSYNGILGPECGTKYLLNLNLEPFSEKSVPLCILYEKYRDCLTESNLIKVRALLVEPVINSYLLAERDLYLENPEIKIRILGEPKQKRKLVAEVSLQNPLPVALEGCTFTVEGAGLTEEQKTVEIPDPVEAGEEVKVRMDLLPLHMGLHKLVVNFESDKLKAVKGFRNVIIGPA
The data set can be described thus: Kinetic inactivation of purified recombinant human TG2, continuous spectrophotometric activity assay (Examples 3, 10). It is filed as biochemical. On the set-up: made in house. The following applies: Table 4; for kinact/KI: read-out: kinact/Ki (μM^−1 min^−1), for ^a no saturation observed, efficiency obtained from initial slope. The procedure:
Kinetic studies were carried out in vitro, using purified recombinant human TG2 (Roy, I. et al., Protein Expr. Purif. 87: 41-46, 2013) and a direct, continuous spectrophotometric activity assay (Leblanc, A. et al., Biochemistry 40: 8335-8342, 2001).
Kinetics. Kinetic runs were performed at 25° C. in 100 mM MOPS buffer (pH 7.0) containing 3 mM CaCl2 and 50 μM EDTA. […] Stock solutions of the substrate and inhibitors were prepared in DMF such that the final concentration of this co-solvent was constant at 10% v/v. Reactions were initiated with the addition of enzyme with an activity of approximately 0.05 U/mL. Kinetic evaluation was carried out by the method of Stone and Hofsteenge (Stone, S. R. and Hofsteenge, J., Biochem. J. 230: 497-502, 1985). […] Observed first-order rate constants of inactivation were determined from non-linear regression, to a mono-exponential model. These rate constants were in turn fit to equation 1 by non-linear regression, providing the kinetic parameters
Kinetic parameters were determined as described above.

The target in data set [2] is T1, TG2. The data set can be described thus: Colorimetric transamidase activity assay (AL5 substrate), hTG2. The following applies: for kinact: read-out: kinact (converted); for kinact/KI: read-out: kinact/KI (10^3M^−1 min^−1). The data set is classed as biochemical.
Experimental: In Vitro Assays. Colorimetric transamidase activity assay. The activities of hTG1, hTG2 and hTG6 were measured via a colorimetric assay using the chromogenic substrate Cbz-Glu(γ-p-nitrophenyl ester)Gly (AL5). The assay was conducted at 25° C. in 100 mM MOPS buffer (pH 6.5) containing 3.0 mM CaCl2 and 50 μM EDTA. […] A stock solution of AL5 was prepared in DMSO such that the final concentration of this co-solvent was constant at 2.5% v/v. Stock solutions of the inhibitors were made in the buffer system previously described. The reaction was initiated with the addition of 40-60 mU/mL of the respective enzyme (0.10 μM hTG1, 0.25 μM hTG2 or 0.32 μM hTG6). Product formation was monitored at 405 nm in a polystyrene 96-well microplate using a BioTek Synergy 4 plate reader. […] Observed first-order rate constants of inactivation (kobs) were determined from non-linear regression fit to a mono-exponential model (Equation 1) of the observed absorbance of the enzymatic hydrolysis product, p-nitrophenolate (pNP). […] Experiments were done in triplicate and variation between repeats was less than 30%.
Data set [3] has as its system SCC-13 cells. The data set can be described thus: Spheroid formation / survival assay, SCC-13 cells (ECS cells). The data set is classed as cell-based, human. The procedure: Spheroid formation assay. Cells, maintained as monolayer cultures in growth medium consisting of DMEM (Invitrogen, Frederick, Md.) supplemented with 4.5 mg/ml D-glucose, […] L-glutamine, […] sodium pyruvate, and 5% fetal calf serum, were harvested, collected by centrifugation, and resuspended in spheroid medium comprising DMEM/F12 (1:1) (DMT-10-090-CV, Mediatech Inc., Manassas, Va.) supplemented with 2% B27 serum-free supplement (17504-044, Invitrogen, Frederick, Md.), 20 ng/ml EGF (E4269, Sigma, St. Louis, Mo.), 0.4% bovine serum albumin (B4287, Sigma) and 4 μg/ml insulin (19278 Sigma, St. Louis, Mo.). The cells (40,000) were plated in 9.6 cm^2 wells in Costar six well ultra-low attachment cluster dishes (4371, Corning, Tewksbury, Mass.). Spheroid size and number was monitored with time in culture as previously described (Adhikary, G. et al., PLoS One 8:e84324, 2013).
Spheroid formation assay. Spheroid formation assays were exactly as outlined previously (Adhikary, G. et al., PLoS ONE 8:e84324, 2013), except that the spheroids were grown in six well ultra-low attachment Costar cluster dishes (4371, Corning, Tewksbury, Mass.).
Spheroid formation assay. Spheroid formation assays were as reported previously (Adhikary, G. et al., PLoS One 8:e84324, 2013), except that the spheroids were grown in 6-well ultralow attachment Costar cluster dishes (Corning).

Structures are written as SMILES.

The term kinact denotes the rate constant of inactivation at saturating inhibitor. By melting point is commonly meant the temperature, or range, at which the solid turns liquid.

Take `C=CC(=O)NCCCC[C@H](NC(=O)OCc1ccccc1)C(=O)N1CCN(C(=O)c2ccc3ccccc3c2)CC1` [AA10, (S)-benzyl(1-(4-(2-naphthoyl)piperazin-1-yl)-6-acrylamido-1-oxohexan-2-yl)carbamate]: in data set [1], the inactivation rate constant (kinact) is 0.0202 s⁻¹ and the kinact/KI was 4000 M⁻¹ s⁻¹. In addition, in data set [2] (Table 8), the kinact is 0.0202 s⁻¹ and the kinact/KI was 1500 M⁻¹ s⁻¹.
The compound `C=CC(=O)NCCCC[C@H](NC(=O)OCc1ccccc1)C(=O)NCCCCNS(=O)(=O)c1cccc2c(N(C)C)cccc12` [Compound 109, (S)-benzyl (6-acrylamido-1-((4-(5-(dimethylamino)naphthalene-1-sulfonamido)butyl)amino)-1-oxohexan-2-yl)carbamate] had a melting point of 54 to 56 °C. Besides, the kinact/KI in data set [1] is 883 M⁻¹ s⁻¹. Besides, in data set [2] (Table 5), the maximal inactivation rate constant (kinact) is 0.0365 s⁻¹ and the kinact/KI was 1350 M⁻¹ s⁻¹.
The matching figures for `C=CC(=O)NCCCC[C@H](NC(=O)OCc1ccccc1)C(=O)NCCCNS(=O)(=O)c1cccc2c(N(C)C)cccc12` [Compound 110, (S)-benzyl (6-acrylamido-1-((3-(5-(dimethylamino)naphthalene-1-sulfonamido)propyl)amino)-1-oxohexan-2-yl)carbamate]: 65 to 67 °C, 783 M⁻¹ s⁻¹, 0.0142 s⁻¹ and 460 M⁻¹ s⁻¹.
As to `C=CC(=O)NCCCC[C@H](NC(=O)OCc1ccccc1)C(=O)NCCNS(=O)(=O)c1cccc2c(N(C)C)cccc12` [Compound 111, (S)-benzyl (6-acrylamido-1-((2-(5-(dimethylamino)naphthalene-1-sulfonamido)ethyl)amino)-1-oxohexan-2-yl)carbamate], the inactivation rate constant (kinact) in data set [1] and in data set [2] (Table 5) was 0.0242 s⁻¹ each time. In addition, the kinact/KI in data set [1] was 1030 M⁻¹ s⁻¹; in data set [2] (Table 5), 1020 M⁻¹ s⁻¹.
Take `C=CC(=O)NCCC[C@H](NC(=O)OCc1ccccc1)C(=O)N1CCN(S(=O)(=O)c2cccc3c(N(C)C)cccc23)CC1` [Compound 117, (S)-benzyl (5-acrylamido-1-(4-((5-(dimethylamino)naphthalen-1-yl)sulfonyl)piperazin-1-yl)-1-oxopentan-2-yl)carbamate]: the melting point is 69 to 70 °C. In data set [1], the kinact was 0.0134 s⁻¹ and the kinact/KI is 1480 M⁻¹ s⁻¹. Moreover, in data set [2] (Table 6), the maximal inactivation rate constant (kinact) is 0.0197 s⁻¹ and the kinact/KI was 412 M⁻¹ s⁻¹. Also, in data set [2] (high concentration of inhibitor (18 μM, FIG. 43)), the “enzyme inactivation, relative observed rate constants (kobs)” value is “reappearance of enzyme inhibition albeit only modestly”.
`C=CC(=O)NCCCC[C@H](NC(=O)OCc1ccccc1)C(=O)N1CCN(S(=O)(=O)c2cccc3ccccc23)CC1` [Compound 128, (S)-benzyl 6-acrylamido-1-(4-(naphthalen-1-ylsulfonyl)piperazin-1-yl)-1-oxohexan-2-yl-carbamate] displayed a melting point of 59 to 61 °C. In data set [1], the kinact was 0.0082 s⁻¹ and the kinact/KI is 2130 M⁻¹ s⁻¹. Moreover, the “rate constant of inactivation relative to VA4” value in data set [2] is “more than three-fold less”. Also, in data set [2] (Table 7), the maximal inactivation rate constant (kinact) is 0.0065 s⁻¹ and the kinact/KI was 620 M⁻¹ s⁻¹.
In turn, `C=CC(=O)NCCCC[C@H](NC(=O)OCc1ccccc1)C(=O)N1CCN(S(=O)(=O)c2ccc3ccccc3c2)CC1` [Compound 129, (S)-benzyl (6-acrylamido-1-(4-(naphthalen-2-ylsulfonyl)piperazin-1-yl)-1-oxohexan-2-yl)-carbamate] registered a melting point of 65 to 66 °C. Also, in data set [1], the maximal inactivation rate constant (kinact) is 0.00643 s⁻¹ and the kinact/KI was 2500 M⁻¹ s⁻¹. Besides, in data set [2] (Table 7), the kinact was 0.00633 s⁻¹ and the kinact/KI is 955 M⁻¹ s⁻¹.
Regarding `C=CC(=O)NCCCC[C@H](NC(=O)OCc1ccccc1)C(=O)N1CCN(S(=O)(=O)c2ccccc2)CC1` [Compound 130, (S)-benzyl (6-acrylamido-1-oxo-1-(4-(phenylsulfonyl)piperazin-1-yl)hexan-2-yl)carbamate], the inactivation rate constant (kinact) in data set [1] was 0.0102 s⁻¹; in data set [2] (Table 7) it was 0.00783 s⁻¹. Further, the results for the kinact/KI in data set [1] and in data set [2] (Table 7) were 2180 M⁻¹ s⁻¹ and 888 M⁻¹ s⁻¹, respectively.
In turn, `C=CC(=O)NCCCC[C@H](NC(=O)OCc1ccccc1)C(=O)N1CCN(S(=O)(=O)Cc2ccccc2)CC1` [Compound 131, (S)-benzyl (6-acrylamido-1-(4-(benzylsulfonyl)piperazin-1-yl)-1-oxohexan-2-yl)carbamate] had a melting point of 50 to 52 °C. In data set [1], the inactivation rate constant (kinact) is 0.00907 s⁻¹ and the kinact/KI was 1900 M⁻¹ s⁻¹. Moreover, in data set [2] (Table 7), the maximal inactivation rate constant (kinact) is 0.00783 s⁻¹ and the kinact/KI is 582 M⁻¹ s⁻¹.
As to `C=CC(=O)NCCCC[C@H](NC(=O)OCc1ccccc1)C(=O)N1CCN(S(=O)(=O)C2CCCCC2)CC1` [Compound 132, (S)-benzyl (6-acrylamido-1-(4-(cyclohexylsulfonyl)piperazin-1-yl)-1-oxohexan-2-yl)carbamate], in data set [1], the kinact was 0.0083 s⁻¹ and the kinact/KI is 2430 M⁻¹ s⁻¹. For the same compound, in data set [2] (Table 7), the kinact is 0.0115 s⁻¹ and the kinact/KI is 1050 M⁻¹ s⁻¹.
`C=CC(=O)NCCCC[C@H](NC(=O)OCc1ccccc1)C(=O)N1CCN(S(=O)(=O)C(C)C)CC1` [Compound 133, (S)-benzyl(6-acrylamido-1-(4-(isopropylsulfonyl)piperazin-1-yl)-1-oxohexan-2-yl)carbamate] showed a melting point of 48 to 49 °C. In data set [1], the kinact was 0.0115 s⁻¹ and the kinact/KI was 2800 M⁻¹ s⁻¹. In addition, in data set [2] (Table 7), the kinact is 0.00833 s⁻¹ and the kinact/KI was 912 M⁻¹ s⁻¹.
For `C=CC(=O)NCCCC[C@H](NC(=O)OCc1ccccc1)C(=O)N1CCN(S(C)(=O)=O)CC1` [Compound 135, (S)-benzyl(6-acrylamido-1-(4-(methylsulfonyl)piperazin-1-yl)-1-oxohexan-2-yl)carbamate], in data set [1], the kinact was 0.0153 s⁻¹ and the kinact/KI was 2730 M⁻¹ s⁻¹. In addition, in data set [2] (Table 7), the maximal inactivation rate constant (kinact) was 0.00833 s⁻¹ and the kinact/KI is 1310 M⁻¹ s⁻¹.
`C=CC(=O)NCCCC[C@H](NC(=O)OCc1ccccc1)C(=O)N1CCN(C(=O)Cc2ccccc2)CC1` [Compound 150, (S)-benzyl (6-acrylamido-1-oxo-1-(4-(2-phenylacetyl)piperazin-1-yl)hexan-2-yl)carbamate] showed a melting point of 48 to 49 °C. Also, in data set [2] (Table 8), the kinact was 0.0377 s⁻¹ and the kinact/KI is 1880 M⁻¹ s⁻¹.
In the case of `NCCCCCNC(=S)Nc1ccc2c(c1)C(=O)OC21c2ccc(O)cc2Oc2cc(O)ccc21` [FC, fluorescein cadaverine, reference compound], the “spheroid number, pre-formed spheroids” value in data set [3] (spheroids grown for 8 days, then treated) is on record as “reduced spheroid number”.
Take `CC(C)(C)n1nc(-c2ccc(Cl)cc2)c2c(N)ncnc21` [PP2, reference compound]: in data set [3] (PF-573228 10 μM, 6 d), the “spheroid formation with kinase inhibitor” value is “suppressed spheroid formation”.

Values taken from patent US10894777B2, “TG2 inhibitor piperazine compounds and uses thereof” (UNIVERSITY OF OTTAWA, priority 2016, dated 2021).
